# Reference: patent US12590061B2, “Crystalline form of acetylcholinesterase inhibitor and preparation method therefor and application thereof” (SHANGHAI INSTITUTE OF MATERIA MEDICA, CHINESE ACADEMY OF …, priority 2019, dated 2026)
# Like-named read-outs stand apart in the source and are kept apart here.
# How the values were obtained:
# Type in all cases: physicochemical
# [1] = Crystal transformation experiment (suspension stirring, XRPD)
# Description: Form A and Form B were mixed in equal amounts, and mixed in EA/Hep(1:1) to give a suspension, and XRPD test is performed after stirring at normal temperature (25° C.) for three days.
# [2] = Dynamic Vapor Sorption (DVS) / hygroscopicity test; settings: for Humidity change (DVS): within the conventional storage humidity range
# Description: Dynamic Vapor Sorption (DVS) test/Hygroscopicity test is a rapid measurement of the increase and loss of sample moisture caused by a flowing carrier gas with a set relative humidity (RH). The hygroscopicity of the sample is then determined by measuring the increase/decrease in the mass of the material to detect the adsorption/desorption of water vapor on a high-sensitivity, high-stability digital microbalance in a self-suspended state.
# In the present invention, the test parameters of DVS are as follows: instrument model: SMS DVS Intrinsic; measurement temperature 25° C., 0-95% RH.
# [3] = Solubility experiment of each crystalline form in water
SMILES,Stability order of the three crystalline forms [1],Crystal form transformation ([1]; metastable crystalline),Humidity change (DVS) [2],"Solubility compared with other form ([3]; in water, Form C becomes Form B after being transformed)","Change in hygroscopicity (weight change, DVS) ([2]; 0-95% relative humidity, 25° C.)",Solubility ([3]; Pure water),"Solubility ([3]; water, pH 2.01, aqueous buffer, thermodynamic from solid, pH 2.01, read-out: Solubility)","Solubility ([3]; water, pH 4.59, aqueous buffer, thermodynamic from solid, pH 4.59, read-out: Solubility)","Solubility ([3]; water, pH 6.74, aqueous buffer, thermodynamic from solid, pH 6.74, read-out: Solubility)",Solubility ([3]; pH 2.01),Solubility ([3]; pH 4.59),Solubility ([3]; pH 6.74)
"COc1cc2c(cc1OC)C(=O)C(CC1(F)CCN(Cc3ccccc3F)CC1)C2 (single isomer, unassigned) [Form C]",Form A>Form B>Form C,transfers to Form B,1.2%,the same as Form B,,,,,,,,
"COc1cc2c(cc1OC)C(=O)C(CC1(F)CCN(Cc3ccccc3F)CC1)C2 (single isomer, unassigned) [Form A]",Form A>Form B>Form C,,,,about 0.6%,140 µg/mL,12400 µg/mL,1860 µg/mL,140 µg/mL,,,
"COc1cc2c(cc1OC)C(=O)C(CC1(F)CCN(Cc3ccccc3F)CC1)C2 (single isomer, unassigned) [Form B]",Form A>Form B>Form C,,1%,,,8.9 µg/mL,,,,20500 µg/mL,2790 µg/mL,180 µg/mL
